Test results reported in PMC9500755, “Albumin-Mediated Size Exclusion Chromatography: The Apparent Molecular Weight of PSMA Radioligands as Novel Parameter to Estimate Their Blood Clearance Kinetics” (Pharmaceuticals, 2022).
Where “and” joins values, the source holds several entries; their conditions need not be identical. Equal entries are not always repeated.

Tests used:
[1] = target: T1, human serum albumin (HSA) (Homo sapiens, UniProt P02768); assay: Albumin-mediated size exclusion chromatography (AMSEC); type: in vitro ADME; conditions: for tR,AMSEC (retention time in AMSEC run): 177Lu-labeled ligand, mobile phase 700 µM HSA in PBS pH 7.4, Superdex 75 Increase, corrected for detector offset, normalized to column 1; for Retention factor k: fraction of time the radioligand is complexed to HSA during the AMSEC run, Equation (2); for MWapp,raw (raw apparent molecular weight): from tR,AMSEC by column calibration, 700 µM HSA in PBS pH 7.4; for MWapp,norm. (normalized apparent molecular weight): from tR,norm. by column calibration; for tR,norm. (normalized retention time): normalized with tR,blank, tR,HSA and tR,acetone, Equation (5); for MWapp,raw in percentage of the MWapp,raw of rhPSMA-7.3: rhPSMA-7.3 = 100%
T1 construct: purchased Biowest, Nuaillé, France
T1 sequence (P02768 25-609): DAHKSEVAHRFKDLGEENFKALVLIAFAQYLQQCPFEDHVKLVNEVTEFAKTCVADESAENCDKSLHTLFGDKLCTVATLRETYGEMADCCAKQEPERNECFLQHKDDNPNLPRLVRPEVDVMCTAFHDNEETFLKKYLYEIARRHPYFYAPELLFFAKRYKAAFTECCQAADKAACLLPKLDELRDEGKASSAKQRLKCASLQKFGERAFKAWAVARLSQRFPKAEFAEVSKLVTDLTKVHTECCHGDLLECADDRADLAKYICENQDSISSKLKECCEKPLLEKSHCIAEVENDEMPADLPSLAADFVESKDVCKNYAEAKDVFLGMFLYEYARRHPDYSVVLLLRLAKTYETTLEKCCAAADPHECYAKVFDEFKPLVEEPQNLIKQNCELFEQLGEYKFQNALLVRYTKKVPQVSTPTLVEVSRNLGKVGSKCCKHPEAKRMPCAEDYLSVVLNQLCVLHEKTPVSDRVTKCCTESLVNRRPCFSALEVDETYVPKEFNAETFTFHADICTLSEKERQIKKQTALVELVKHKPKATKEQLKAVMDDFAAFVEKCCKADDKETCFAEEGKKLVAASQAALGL
Method: All size exclusion chromatographic (SEC) experiments were carried out using the above-mentioned HPLC system equipped with a Superdex 75 Increase 10/300 GL gel filtration size exclusion column (fractionation range 70–3 kDa, GE Healthcare, Uppsala, Sweden). Eluents at room temperature, a constant flow rate of 0.8 mL/min, and an acquisition time of 35 min were generally applied. The column was calibrated as recommended by the manufacturer using a commercially available set of proteins (Gel Filtration LMW Calibration Kit, GE Healthcare, Buckinghamshire, UK). Retention times of calibration proteins and calculated calibration parameters are given in the Supplementary Materials (Table S3). UV signal detection occurred at 280 nm.
All retention times of radio signals were corrected for the offset between the UV-vis detector and radio-detector (Δt = 0.084 min). Throughout the development of the AMSEC method, three gel filtration columns of the same type were used for experiments (most data were acquired using column 1). As calculations were based on absolute empirical retention times that inherently differed slightly from column to column, all retention times determined on column 2 and column 3 were mathematically converted to an equivalent retention time on column 1 using the columns’ calibration parameters. A detailed description of these calculations is provided in the Supplementary Materials.
All numerical retention times explicitly given in running text or tables and plotted in diagrams are already corrected for the offset between UV-vis and radio-detector and, if initially determined on columns 2 or 3, converted to the equivalent retention time on column 1 (for detailed information, see Equations (S1) and (S2) and Table S1 in the Supplementary Materials).
AMSEC runs were executed with a solution of HSA (Biowest, Nuaillé, France) in PBS (pH 7.4) at physiological concentration (700 µM) as a mobile phase. Upon injection of approximately 1.0 MBq (5–10 µL) of a radioligand, the elution profile was monitored via radioactivity detection, and the retention times of observed radiopeaks (tR,AMSEC) were determined via semi-automated peak integration. By means of calibration, retention times were translated into a ligand-specific raw apparent molecular weight (MWapp,raw) as a parameter to assess the extent of HSA binding (for calculation, see Equation (S6) in the Supplementary Materials). rhPSMA-7.3 served as an internal standard during AMSEC studies and was co-evaluated whenever new data were collected to assess the reproducibility of the method (n = 14).
For reference purposes, conventional SEC runs of HSA (100 µL, 3 mg/mL) and acetone (100 µL, 2% in PBS pH 7.4) with PBS (pH 7.4) as a mobile phase were executed. The retention time of HSA (tR,HSA) corresponded to the maximal MWapp,raw, theoretically observable in AMSEC runs in the case of continuous binding of a radioligand to HSA (equivalent to 100% HSA binding). The retention time of acetone (tR,acetone) served as a reference for a ligand with no interaction with HSA in AMSEC runs (equivalent to 0% HSA binding) and an actual physical molecular weight below the column fractionation range (this was the case for all investigated radioligands).
(§1) MWapp,raw values determined as described in Section 3.3.1. were normalized in order to account for ligand-specific influences on experimentally determined retention times and to establish quantitative comparability of the obtained MWapp,norm. values. The normalization was based on a SEC run (referred to as blank run) of a radioligand executed in analogy to the AMSEC run but using PBS (pH 7.4) without HSA as a mobile phase. The determined retention time tR,blank, together with the retention time tR,AMSEC from the AMSEC run, tR,HSA, and tR,acetone determined in Section 3.3.1, were used to calculate a normalized retention time tR,norm. for every radioligand (for formulae and details on the calculation, see Section 2. Results and Discussion). […]

[2] = Blank SEC run of radioligand (PBS pH 7.4 without HSA); type: physicochemical
Method: To validate this hypothesis, blank runs (PBS pH 7.4 as mobile phase) of the radioligands on the SEC column were performed. The resulting retention times were termed tR,blank and represent the ligand-specific retention time that would correspond to 0% HSA binding in the AMSEC experiment. […] We concluded that unspecific electrostatic interactions between the highly negatively charged radioligand and the agarose/dextran-based matrix of the superdex column are present and lead to an elution prior to the expected cut-off volume. Consequently, apart from the radioligand’s binding to HSA in the AMSEC run, the unspecific interactions with the column matrix contribute to the determined MWapp,raw, thus hampering its informative value. […]
as §1, with “The normalization was based on a SEC run (referred to as blank run) of a radioligand executed in analogy to the AMSEC run but using PBS (pH 7.4) without HSA as a mobile phase.” left out

[3] = Calculated glomerular sieving coefficients (GSCcalc) from MWapp,norm.; conditions: from MWapp,norm. via sigmoidal fit of MW vs GSC of 12 human plasma proteins
From the text: Therefore, when comparing the MWapp,norm. of different radioligands, not only their relative difference but also the absolute values of MWapp,norm. are of importance. […] These GSCcalc determined for all the PSMA radioligands (Table 2, Figure 5) inherently account for the exponential nature of the relationship between their albumin-mediated MWapp,norm. and MW-dependent GF and could, therefore, be a useful parameter to estimate differences in blood clearance by means of GF. The GSC is defined as the ratio of a compound’s concentration in the glomerular filtrate to that in the blood; thus, a GSC of 1 represents unhindered filtration through the capillary membrane in the glomerulus, while a lower GSC corresponds to a restricted filtration and, thus, a prolonged circulatory half-life. […] As an example, a GSCcalc of 0.408 was determined for rhPSMA-7.3, while an almost three-fold smaller GSCcalc of 0.138 was determined for rhPSMA-7.4. […] This would constitute a dramatic physiological effect that, in its extent, could not be predicted only based on subtle differences in molecular structure and other conventionally determined in vitro parameters. We, therefore, believe that the MWapp,norm. and GSCcalc obtained by AMSEC could be important parameters that, already at the preclinical stage of development, could help in the selection of promising therapeutic radioligands with pharmacokinetic profiles suitable for patient application.
A sigmoidal fit of molecular weights (MWs, in kDa) and corresponding glomerular sieving coefficients (GSCs) of 12 human plasma proteins (data taken from Norden et al.) was executed using OriginPro software. A dose-response model based on Equation (6) was applied:(6) GSC=A1+A2−A1/1+10^(LOGx0−MW)·p.
The values of bottom asymptote A1 and top asymptote A2 were set to 4.2∙10^−5 (GSC of IgG, data taken from Norden et al.) and 1 (equaling complete sieving), respectively. Curve fitting gave the center parameter LOGx0 = 19.36833 and the Hill slope p = −0.12108. GSCcalc values were calculated via implementation of fitting parameters and the experimentally determined MWapp,norm. in Equation (6).

[4] = parameters: method as in PMID 34531260; conditions: 177Lu-labeled, intrapatient comparison vs PSMA-I&T; cited from earlier work

| Structure (SMILES) | tR,AMSEC (retention time in AMSEC run) [1] | Relative reduction in MWapp,norm. compared to MWapp,raw ([1]; effect of normalization) | Retention factor k [1] | MWapp,raw (raw apparent molecular weight) [1] | MWapp,norm. (normalized apparent molecular weight) [1] | tR,norm. (normalized retention time) [1] | MWapp,raw in percentage of the MWapp,raw of rhPSMA-7.3 [1] | tR,blank (retention time in blank run) ([2]; PBS pH 7.4 without HSA as mobile phase, corresponds to 0% HSA binding) [min] | GSCcalc (calculated glomerular sieving coefficient) [3] | MWapp,norm. higher than that of the stereoisomer ([1]; rhPSMA-7.2 vs rhPSMA-7.1, rhPSMA-10.1 vs rhPSMA-10.2) [%] | mean MWapp,raw ([1]; mean ± SD, n = 14) [kDa] | MW mathematically corresponding to tR,blank ([2]; PBS pH 7.4 without HSA) [kDa] | tumor dose relative to PSMA-I&T [4] [fold] |
| --- | --- | --- | --- | --- | --- | --- | --- | --- | --- | --- | --- | --- | --- |
| O=C(O)CC[C@H](NC(=O)N[C@@H](CCCCNC(=O)CCCCCCC(=O)NCCCC[C@@H](NC(=O)[C@@H](Cc1ccccc1)NC(=O)[C@@H](Cc1ccc(O)c(I)c1)NC(=O)CCC(C(=O)O)N1CCN(CC(=O)O)CCN(CC(=O)O)CCN(CC(=O)O)CC1)C(=O)O)C(=O)O)C(=O)O (stereo partly shown) (177Lu complex, metal not drawn) [PSMA-I&T, reference compound] | 20.983 min | around 60% | 0.0013 and 0.001 | 5.4 kDa | 1.9 kDa | 24.792 min | approximately 18% | 20.995 | – | – | – | – | – |
| CC(C)(C)[Si](F)(c1ccc(C(=O)NC[C@@H](NC(=O)CC[C@H](C(=O)O)N2CCN(CC(=O)[O-])CCN(CC(=O)[O-])CCN(CC(=O)[O-])CC2)C(=O)N[C@H](CCCCNC(=O)CCC(=O)NCCC[C@@H](NC(=O)CC[C@H](NC(=O)N[C@@H](CCC(=O)O)C(=O)O)C(=O)O)C(=O)O)C(=O)O)cc1)C(C)(C)C.[177Lu+3] [rhPSMA-7.1] | 15.240 min | – | 0.613 | 26.5 kDa | 17.1 kDa | 16.824 min | – | – | 0.655 | – | – | – | – |
| CC(C)(C)[Si](F)(c1ccc(C(=O)NC[C@H](NC(=O)CC[C@H](C(=O)O)N2CCN(CC(=O)[O-])CCN(CC(=O)[O-])CCN(CC(=O)[O-])CC2)C(=O)N[C@H](CCCCNC(=O)CCC(=O)NCCC[C@@H](NC(=O)CC[C@H](NC(=O)N[C@@H](CCC(=O)O)C(=O)O)C(=O)O)C(=O)O)C(=O)O)cc1)C(C)(C)C.[177Lu+3] [rhPSMA-7.2] | 14.564 min | – | 0.680 | 32.0 kDa | 21.7 kDa | 15.962 min | – | – | 0.344 | 27 | – | – | – |
| CC(C)(C)[Si](F)(c1ccc(C(=O)NC[C@@H](NC(=O)CC[C@@H](C(=O)O)N2CCN(CC(=O)[O-])CCN(CC(=O)[O-])CCN(CC(=O)[O-])CC2)C(=O)N[C@H](CCCCNC(=O)CCC(=O)NCCC[C@@H](NC(=O)CC[C@H](NC(=O)N[C@@H](CCC(=O)O)C(=O)O)C(=O)O)C(=O)O)C(=O)O)cc1)C(C)(C)C.[177Lu+3] [rhPSMA-7.3] | 14.722 min and 14.722 ^3 min | – | 0.667 ^1 | 30.6 ^3 kDa | 20.7 kDa and 20.7 ^1 kDa | 16.125 ^1 min | – | – | 0.408 | – | 30.6 | 6.0 | 2.4 |
| CC(C)(C)[Si](F)(c1ccc(C(=O)NC[C@H](NC(=O)CC[C@@H](C(=O)O)N2CCN(CC(=O)[O-])CCN(CC(=O)[O-])CCN(CC(=O)[O-])CC2)C(=O)N[C@H](CCCCNC(=O)CCC(=O)NCCC[C@@H](NC(=O)CC[C@H](NC(=O)N[C@@H](CCC(=O)O)C(=O)O)C(=O)O)C(=O)O)C(=O)O)cc1)C(C)(C)C.[177Lu+3] [rhPSMA-7.4] | 14.143 min | – | 0.729 | 36.0 kDa | 26.0 kDa | 15.316 min | ~120% | – | 0.138 | – | – | – | – |
| CC(C)(C)[Si](F)(c1ccc(C(=O)NC[C@H](NC(=O)CN2CCN(CC(=O)[O-])CCN(CC(=O)[O-])CCN(CC(=O)[O-])CC2)C(=O)N[C@H](CCCCNC(=O)CCC(=O)NCCC[C@@H](NC(=O)CC[C@H](NC(=O)N[C@@H](CCC(=O)O)C(=O)O)C(=O)O)C(=O)O)C(=O)O)cc1)C(C)(C)C.[177Lu+3] [rhPSMA-10.2] | 15.908 min | – | 0.543 | 22.0 kDa | 13.2 kDa | 17.736 min | – | – | 0.846 | – | – | – | – |
